Earlier results as cited in patent publication US6369046B1, “Methods for treating dementia” (The Board of Trustees of the Leland Stanford Junior …, priority 1998, dated 2002).

Columns and labels:
[1] = target: T1, glucocorticoid (GR) receptor (Homo sapiens, UniProt P04150); settings: Bocquel (1993) for RU009; cited from earlier work
T1 sequence (P04150 1-777): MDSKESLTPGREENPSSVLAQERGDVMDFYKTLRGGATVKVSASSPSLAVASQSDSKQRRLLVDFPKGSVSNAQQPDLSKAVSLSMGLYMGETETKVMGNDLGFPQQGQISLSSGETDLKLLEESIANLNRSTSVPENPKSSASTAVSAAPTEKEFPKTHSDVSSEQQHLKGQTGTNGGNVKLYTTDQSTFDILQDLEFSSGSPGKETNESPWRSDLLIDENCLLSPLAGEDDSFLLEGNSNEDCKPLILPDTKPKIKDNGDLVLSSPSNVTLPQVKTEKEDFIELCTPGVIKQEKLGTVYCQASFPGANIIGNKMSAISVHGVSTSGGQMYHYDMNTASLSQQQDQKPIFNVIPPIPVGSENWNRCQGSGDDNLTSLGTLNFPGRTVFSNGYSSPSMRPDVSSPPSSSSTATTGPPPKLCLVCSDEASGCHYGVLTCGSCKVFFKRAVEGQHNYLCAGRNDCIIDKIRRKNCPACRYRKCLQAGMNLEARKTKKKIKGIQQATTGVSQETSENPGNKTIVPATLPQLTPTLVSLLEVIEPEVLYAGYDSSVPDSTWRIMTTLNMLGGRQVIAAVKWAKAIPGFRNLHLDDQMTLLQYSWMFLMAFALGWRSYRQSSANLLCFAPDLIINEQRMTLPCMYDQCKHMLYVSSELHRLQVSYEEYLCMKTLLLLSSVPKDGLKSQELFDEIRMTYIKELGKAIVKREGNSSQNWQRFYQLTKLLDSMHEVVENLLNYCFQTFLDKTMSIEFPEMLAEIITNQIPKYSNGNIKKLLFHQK

[2] = target: T2, progesterone receptor (Homo sapiens, UniProt P06401); settings: cited from earlier work
T2 sequence (P06401 1-933): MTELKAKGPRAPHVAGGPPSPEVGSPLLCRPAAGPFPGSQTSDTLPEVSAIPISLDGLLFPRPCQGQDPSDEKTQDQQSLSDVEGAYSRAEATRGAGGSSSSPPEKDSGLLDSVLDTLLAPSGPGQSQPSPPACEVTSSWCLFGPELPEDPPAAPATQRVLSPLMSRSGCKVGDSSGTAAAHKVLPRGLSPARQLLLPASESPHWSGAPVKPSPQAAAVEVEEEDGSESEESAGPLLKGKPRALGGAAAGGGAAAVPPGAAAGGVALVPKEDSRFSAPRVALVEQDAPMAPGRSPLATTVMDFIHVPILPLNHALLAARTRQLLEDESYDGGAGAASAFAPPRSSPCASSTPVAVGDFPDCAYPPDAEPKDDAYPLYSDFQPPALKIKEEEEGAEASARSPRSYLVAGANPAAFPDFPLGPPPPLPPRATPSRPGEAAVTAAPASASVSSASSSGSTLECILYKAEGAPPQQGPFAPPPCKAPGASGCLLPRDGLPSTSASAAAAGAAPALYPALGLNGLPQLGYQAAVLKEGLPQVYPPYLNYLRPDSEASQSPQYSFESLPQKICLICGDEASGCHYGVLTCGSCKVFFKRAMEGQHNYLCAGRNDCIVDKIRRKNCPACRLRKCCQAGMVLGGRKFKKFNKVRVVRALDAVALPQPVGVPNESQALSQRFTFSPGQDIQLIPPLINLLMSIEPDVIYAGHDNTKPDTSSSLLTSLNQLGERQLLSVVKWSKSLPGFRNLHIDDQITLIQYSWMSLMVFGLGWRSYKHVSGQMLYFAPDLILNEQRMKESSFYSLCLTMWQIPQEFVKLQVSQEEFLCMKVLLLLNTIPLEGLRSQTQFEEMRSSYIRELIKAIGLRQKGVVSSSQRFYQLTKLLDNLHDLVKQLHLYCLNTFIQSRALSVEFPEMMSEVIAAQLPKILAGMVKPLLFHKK

[3] = Kawai (1989) supra; cited from earlier work

Compound | GR antagonism [1] | progesterone receptor antagonism [2] | fraction of the daily dose excreted in the urine [3]
CC#C[C@]1(O)CC[C@H]2[C@@H]3CCC4=CC(=O)CCC4=C3[C@@H](c3ccc(OCCN(C)C)cc3)C[C@@]21C [RU009, 11-beta-(4-dimethyl-aminoethoxyphenyl)-1 7-alpha-(propynyl-17 beta-hydroxy-4,9-estradien-3-one)] | GR antagonist effects | – | –
CC#C[C@]1(O)CC[C@H]2[C@@H]3CCC4=CC(=O)CCC4=C3[C@@H](c3ccc(N(C)C)cc3)C[C@@]21C [mifepristone, 17-beta-hydroxy-11-beta-(4-dimethyl-aminophenyl)-17-alpha-(1-propynyl)-estra-4,9-dien-3-one] | powerful antagonist | powerful antagonist | less than 0.5 % of the daily dose
